Earlier results on two molecules are cited in patent US5618928A, “Triazenyl-substituted phenyl pyrimidines and their use in therapy” (British Technology Group Limited, priority 1992, dated 1997).

For series [1] the following is noted: in combination with sulphamethoxazole, AIDS patients; cited from earlier work.
Series [2] deals with dihydrofolate reductase (DHFR). The conditions noted are these: in words, background; cited from earlier work.

Regarding `COc1cc(Cc2cnc(N)nc2N)cc(OC)c1OC` [trimethoprim], the adverse reactions result in series [1] is recorded as “high percentage of adverse reactions in AIDS patients”.

Consider `COc1cc(NCc2ccc3nc(N)nc(N)c3c2C)cc(OC)c1OC` [trimetrexate], for which, in series [2], the potency result is “high potency” and the selectivity entry is “poor selectivity”.
